According to patent US20050137251A1, “Dexanabinol and dexanabinol analogs regulate inflammation related genes” (priority 2002, published 2005):

Legend:
COX-2 gene expression = COX-2 gene expression in MCAo mice brains; details: 5 mg/kg i.v., 18 hrs following MCAo
[1] = test system: LoVo colorectal cancer cells; assay: Tumor growth of in vivo implanted LoVo colorectal cancer cells; set-up: species or system mice; details: end of 8 weeks treatment
Experimental: Once we have shown that dexanabinol and its analogs were inhibitors of tumor cell proliferation in vitro, we wished to test if our compounds were as efficient in vivo. For this purpose the tumor cells LoVo (originating from a colorectal tumor; ATCC # CCL-229) were grown in DMEM containing 4.5 g/L glucose, 2 mM Glutamine, 1% Pen/Strep and 10% heat inactivated fetal calf serum. The cells were harvested using Trypsin-EDTA, the detached cells were rinsed in PBS, and counted. Predetermined amounts (1×10^6 cells in constant volume of […]) were injected s.c. above the right femoral joint in nude CD-1 male mice (average weight 20-25 gr, Harlan, Israel). Each treatment group was composed of at least 7 animals. Each animal was clinically monitored daily. The growth of the tumor was also monitored during the daily visits but actual measurements were recorded once a week. When tumors reach the appropriate size, animals are treated with either vehicle, 5 ml/kg/day, or with our test compounds, in the range of 2.5 to 10 mg/kg/day.
Thirty-six out of the 40 implanted mice developed a visible tumor within 5 to 6 weeks from tumor implantation. All animals were treated first on the 36th-42nd day of tumor implantation and the treatment lasted 8 weeks. One animal died in each treatment group between the 5th and the 7th week of treatment. The results are expressed as percent of tumor growth at the various days of the treatment as compared to baseline day 1. The results are depicted in FIG. 7 where we can observe that the efficacy of dexanabinol is inversely proportional to its dose in the range tested. 2.5 mg/kg (▪) seems more efficient than 5 mg/kg (▴), itself better than 10 mg/kg (x), which has very little effect, if at all, as compared to vehicle (--♦--). By the end of the treatment, 2.5 mg/kg dexanabinol reduced the tumor growth by 89%, 5 mg/kg by 61% and 10 mg/kg by 21%.

[2] = test system: activated microglia cells; assay: Activated microglia (F4/80 immunohistochemistry) in hippocampus of LPS injected mice brains; format: in vivo; details: 20 mg/kg, 72 hours after LPS
Experimental: The local i.c.v. injection of LPS in mice brain stimulates a wide range of inflammatory responses and cascades where various cytokines and chemokines are implicated. Following the results obtained in examples 3 and 4, we decided to assess the effect of additional active compounds of the invention on other genes involved in the inflammatory response. Specifically, we tested the impact of dexanabinol and PRS-211,092, both at 20 mg/kg, on the expression of pro-inflammatory IL-1β cytokine. The protocol was basically as previously described with minor modifications. The amount of LPS injected in the mice brain was raised to 250 ng and the animals were sacrificed 24 hours after LPS and treatment injection for mRNA analysis, carried out as previously described. Moreover, some animals were kept alive and sacrificed 72 hours after LPS and treatment injection for immunohistochemical analysis. For this purpose, after euthanizing the animals by injecting i.p. 100 mg/kg of sodium pentobarbitone, brains were removed and fixed in 4% formaldehyde for at least 72 hours. Brains were then washed with PBS and transferred for cryoprotection in a solution of 30% sucrose in PBS, until they sank. […] Quantitative analysis was carried out by counting the number of immunoreactive cells/mm^2 at the level of the hippocampus.

[3] = test system: TH-immunoreactive cells at the SNpc (MPTP-induced dopaminergic toxicity); assay: MPTP short-term model: TH immunoreactive cells at the SNpc; format: in vivo, mice
Experimental: The mice (C57/BL male mice, average weight 30 g, Harlan, Israel) were administered i.p. with 4 injections of MPTP (Sigma, USA) (20 mg/kg, 5 ml/kg) in saline (Teva Medical Israel) at 2 hours interval on day 1. The test compounds and vehicle control (cremophor:ethanol diluted in saline) were injected i.p. once just before the first MPTP administration at a volume dose of 5 ml/kg. Dexanabinol was tested at 10, 20, and 30 mg/kg and PRS-211,220 was tested at 0.5, 1, and 5 mg/kg. Each treatment group was composed of at least seven animals. Seven days following the MPTP treatment the animals are euthanized by i.p. administration of 100 mg/kg pentobarbitone sodium (CTS, Israel) and their brains are removed for tyrosine hydroxylase (TH) detection using immunohistochemistry.
Brains were fixed by immersion in 4% formaldehyde for at least 72 hours. The brains were then washed with PBS and transferred to 30% sucrose in PBS until they sank. […] Quantitative analysis was carried out by counting the number of TH-immunoreactive cells/mm^2 at the widest area of the SNpc.
Treatment of the animals with the test compounds results in a dose-dependent preservation of the TH-IR cells. Percent preservation is calculated by dividing the number of rescued cells (treatment-MPTP) by the maximal possible number of rescued cells (saline-MPTP). […]

PGE2 secretion = assay: Inhibition of PGE2 secretion in LPS activated mouse macrophages (RAW 264.7); format: cell-based; details: RAW264.7, LPS activated RAW 264.7 cells
Experimental: The assay reproduces in vitro the true enzymatic activity, the test compounds, up to 10 μM, were preincubated for 5 minutes with purified COX-2, then the natural substrate AA was added and the reaction was allowed to proceed for 2 minutes. HCl was used to stop the enzyme catalysis and saturated stannous chloride was added to stabilize the PGH2 product into PGF2α.
RAW 264.7 macrophages, a mouse cell line (ATCC # TIB 71), were grown in Dulbecco's modified Eagle's medium (DMEM) with 4 mM L-glutamine adjusted to contain 1.5 g/L sodium bicarbonate, 4.5 g/L glucose, and 10% heat inactivated fetal bovine serum. Cells were grown in tissue culture flasks and seeded at appropriate density into 24 wells tissue culture plates. 0.5×10^6 Raw cells in one milliliter were stimulated with 2 μg/ml Lipopolysaccharide E. coli 055:B5 (DIFCO Laboratories). The mouse macrophages were pre-treated for one hour with controls or 10 μM of dexanabinol and its analogs, unless indicated otherwise, and later on activated with LPS.

## CCCCCCC(C)(C)c1cc(O)c2c(c1)OC(C)(C)[C@H]1CC=C(CO)C[C@H]21 [dexanabinol, 1,1-dimethylheptyl-(3S,4S)-7-hydroxy-Δ^6-tetrahydrocannabinol]
COX-2 gene expression
  Reduction of COX-2 gene activation vs vehicle: 38%
[1]; 2.5 mg/kg/day
  Reduction of tumor growth: 89%
[1]; 5 mg/kg/day
  Reduction of tumor growth: 61%
[1]; 10 mg/kg/day
  Reduction of tumor growth: 21%
[2]
  Reduction of the amount of activated microglia vs vehicle: 40%
[3]; 20 mg/kg i.p., seven days after MPTP
  Preservation of TH-IR cells: about 25%
[3]; 30 mg/kg vs 20 mg/kg
  Effect of increasing the dose on TH-IR cell preservation: no significant effect
PGE2 secretion
  IC50: 10 µM
